Measurements: article PMC2994747, “Molecular Characterization of c-Abl/c-Src Kinase Inhibitors Targeted against Murine Tumour Progenitor Cells that Express Stem Cell Markers” (PLoS ONE, 2010)
Like-named read-outs stand apart in the source and are kept apart here.

Key:
A549 [1] = test: MTS cell viability assay; type: cell-based, human
Experimental: (§1) Three human and eleven murine cancer cell lines were used. The human NSCLC cell line A549 (ACC 107) and the human colorectal carcinoma cell line CaCo2 (ACC 169) were obtained from Deutsche Sammlung von Mikroorganismen und Zellkulturen (DSMZ, Braunschweig, Germany). The human hepatocellular carcinoma cell line HepG2 (HB-8065) was obtained from American Type Culture Collection (Manassas, VA, USA). The 11 murine NSCLC cell lines were established as described recently. Cells were grown in monolayer cultures in DMEM containing 10% foetal calf serum, 4 mmol/l L-glutamine and 2% Penicillin/Streptomycin at 37°C in a humidified atmosphere of 95% air and 5% CO2.
(§2) Cell culture viability was monitored by CellTiter96® AQueous One Solution Cell Proliferation Assay (Promega GmbH, Mannheim, Germany). The cells were seeded in triplicates in 96-well microtitre plates and treated with the dual kinase inhibitors or vehicle (0.2% DMSO). After 24 h or 96 h of treatment the MTS tetrazolium reagent was added to the cells and incubated for 1 h. Absorbance at 490 nm was assayed with a Victor3 Wallac 1420 Multilabel counter (PerkinElmer, Waltham, MA, USA).

CaCo2 [2] = test: MTS cell viability assay; type: cell-based, human
Experimental: as §1, §2

HepG2 [3] = test: MTS cell viability assay; type: cell-based, human
Experimental: as §1, §2

GammaA3 [4] = test: MTS cell viability assay; type: cell-based, mouse
Experimental: as §1, §2

GammaD12 [5] = test: MTS cell viability assay; type: cell-based, mouse; conditions: MTS
Experimental: as §1, §2

BetaD5 [6] = test: MTS cell viability assay; type: cell-based, mouse
Experimental: as §1, §2

A2C12 [7] = test: MTS cell viability assay; type: cell-based, mouse
Experimental: as §1, §2

GammaA3 [8] = test: Cell cycle analysis by flow cytometry; type: cell-based, mouse; conditions: IC50 concentration, 96 h
Experimental: (§3) CycleTEST™ PLUS DNA Reagent Kit (Becton Dickinson GmbH, Heidelberg, Germany) for cell cycle analysis was used, according to the instructions of the manufacturer. Briefly, the cells were harvested with trypsin, washed with PBS, and resuspended in CycleTEST Buffer. The cells were centrifuged and resuspended in solution A. After incubation for 10 min at room temperature, solution B was added and incubated. After adding solution C, the samples were incubated at 4°C protected from light. The samples were stored on ice and protected from light until analysis by FACScan flow cytometer (Becton Dickinson GmbH, Heidelberg, Germany).

GammaD12 [9] = test: Cell cycle analysis by flow cytometry; type: cell-based, mouse; conditions: IC50 concentration, 96 h
Experimental: as §3

BetaD5 [10] = test: Cell cycle analysis by flow cytometry; type: cell-based, mouse; conditions: IC50 concentration, 96 h
Experimental: as §3

A2C12 [11] = test: Cell cycle analysis by flow cytometry; type: cell-based, mouse; conditions: IC50 concentration, 96 h
Experimental: as §3

A549 [12] = test: Cell cycle analysis by flow cytometry; type: cell-based, human; conditions: IC50 concentration, 96 h
Experimental: as §3

CaCo2 [13] = test: Cell cycle analysis by flow cytometry; type: cell-based, human; conditions: IC50 concentration, 96 h
Experimental: as §3

HepG2 [14] = test: Cell cycle analysis by flow cytometry; type: cell-based, human; conditions: IC50 concentration, 96 h
Experimental: as §3

[15] = 24 h, read-out: Calculated IC50 after single treatment for 24 h
[16] = 96 h, read-out: Calculated IC50 after daily treatment for 96 h

| Compound | IC50 (A549 [1]; [15]) [µM] | IC50 (A549 [1]; [16]) [µM] | IC50 (CaCo2 [2]; [15]) [µM] | IC50 (CaCo2 [2]; [16]) [µM] | IC50 (HepG2 [3]; [15]) [µM] | IC50 (HepG2 [3]; [16]) [µM] | IC50 (GammaA3 [4]; [15]) [µM] | IC50 (GammaA3 [4]; [16]) [µM] | IC50 (GammaD12 [5]; [15]) [µM] | IC50 (GammaD12 [5]; [16]) [µM] | IC50 (BetaD5 [6]; [15]) [µM] | IC50 (BetaD5 [6]; [16]) [µM] | IC50 (A2C12 [7]; [15]) [µM] | IC50 (A2C12 [7]; [16]) [µM] | Cells in G1 phase (GammaA3 [8]) [%] | Cells in G2 phase (GammaA3 [8]) [%] | Cells in S phase (GammaA3 [8]) [%] | Cells in G1 phase (GammaD12 [9]) [%] | Cells in G2 phase (GammaD12 [9]) [%] | Cells in S phase (GammaD12 [9]) [%] | other results |
| --- | --- | --- | --- | --- | --- | --- | --- | --- | --- | --- | --- | --- | --- | --- | --- | --- | --- | --- | --- | --- | --- |
| CSc1nc(NCc2ccccc2)c2cnn(CC(Cl)c3ccccc3)c2n1 (centres unmarked) [Si34] | 69.5 ± 27.7 | 10.4 ± 0.4 | 58.2 ± 4.2 | 5.9 ± 0.1 | 58.5 ± 3 | 26.7 ± 4.8 | 25.2 ± 3.1 | 10.7 ± 0.6 | 23.2 ± 2.5 | 8.8 ± 1.4 | 37 ± 2.3 | 9.6 ± 0.2 | 32.8 ± 4.8 | 8.3 ± 0.3 | 68.6 | 16.8 | 14.6 | 36.2 | 7.9 | 55.9 | Cells in G1 phase (BetaD5 [10]): 65.8%; Cells in G2 phase (BetaD5 [10]): 23.1%; Cells in S phase (BetaD5 [10]): 11.1%; Cells in G1 phase (A2C12 [11]): 74.5%; Cells in G2 phase (A2C12 [11]): 9.7%; Cells in S phase (A2C12 [11]): 15.7%; Cells in G1 phase (A549 [12]): 67.3%; Cells in G2 phase (A549 [12]): 5.6%; Cells in S phase (A549 [12]): 27.1%; Cells in G1 phase (CaCo2 [13]): 52.9%; Cells in G2 phase (CaCo2 [13]): 10.5%; Cells in S phase (CaCo2 [13]): 36.7%; Cells in G1 phase (HepG2 [14]): 52%; Cells in G2 phase (HepG2 [14]): 13.2%; Cells in S phase (HepG2 [14]): 34.7% |
| Fc1ccc(C(Cl)Cn2ncc3c(Nc4cccc(Cl)c4)ncnc32)cc1 (centres unmarked) [Si104] | 17.8 ± 2.6 | 6.8 ± 0.1 | 40.8 ± 1.7 | 5.8 ± 0.2 | 40.9 ± 1.7 | 10.3 ± 0.7 | 18.3 ± 0.7 | 11.4 ± 0.3 | 13.2 ± 0.9 | 9.2 ± 0.5 | 12.6 ± 2.6 | 12.4 ± 1 | 16.2 ± 1 | 6.5 ± 0.3 | 61.9 | 16.9 | 21.2 | 35.3 | 7.8 | 56.9 | Cells in G1 phase (BetaD5 [10]): 57.4%; Cells in G2 phase (BetaD5 [10]): 25.3%; Cells in S phase (BetaD5 [10]): 17.3%; Cells in G1 phase (A2C12 [11]): 45.8%; Cells in G2 phase (A2C12 [11]): 13.8%; Cells in S phase (A2C12 [11]): 40.4%; Cells in G1 phase (A549 [12]): 68.1%; Cells in G2 phase (A549 [12]): 5.5%; Cells in S phase (A549 [12]): 26.4%; Cells in G1 phase (CaCo2 [13]): 51%; Cells in G2 phase (CaCo2 [13]): 10.9%; Cells in S phase (CaCo2 [13]): 38.1%; Cells in G1 phase (HepG2 [14]): 56.2%; Cells in G2 phase (HepG2 [14]): 8.1%; Cells in S phase (HepG2 [14]): 35.6% |
| CSc1nc(NCCc2ccccc2)c2cnn(CC(Cl)c3ccc(F)cc3)c2n1 (centres unmarked) [Si66] | 21.6 ± 2.6 | 7.1 ± 0.1 | 44.7 ± 5.9 | 6 ± 0.1 | 44.7 ± 5.9 | 8.2 ± 0.6 | 23.7 ± 2 | 9.1 ± 0.2 | 14.2 ± 1.7 | 4.8 ± 0.4 | 20.7 ± 0.4 | 10.3 ± 0.3 | 23.7 ± 2.2 | 6.9 ± 0.4 | 58.4 | 18.5 | 23.1 | 32.1 | 6.7 | 61.5 | Cells in G1 phase (BetaD5 [10]): 52.7%; Cells in G2 phase (BetaD5 [10]): 25.6%; Cells in S phase (BetaD5 [10]): 21.7%; Cells in G1 phase (A2C12 [11]): 65.3%; Cells in G2 phase (A2C12 [11]): 11.8%; Cells in S phase (A2C12 [11]): 22.9%; Cells in G1 phase (A549 [12]): 68.6%; Cells in G2 phase (A549 [12]): 5.3%; Cells in S phase (A549 [12]): 26.1%; Cells in G1 phase (CaCo2 [13]): 61%; Cells in G2 phase (CaCo2 [13]): 5.8%; Cells in S phase (CaCo2 [13]): 33.3%; Cells in G1 phase (HepG2 [14]): 61.1%; Cells in G2 phase (HepG2 [14]): 9.2%; Cells in S phase (HepG2 [14]): 29.8% |
| CCCCNc1nc(SCC)nc2c1cnn2CC(Cl)c1ccccc1 (centres unmarked) [Si20] | 25.1 ± 2.6 | 13.6 ± 1.5 | 56.2 ± 2 | 6.5 ± 0.1 | 56.2 ± 2.1 | 8.1 ± 2.8 | 21.5 ± 2.3 | 15.5 ± 2.3 | 17.1 ± 1.5 | 11.3 ± 1.2 | 27 ± 7.9 | 10.4 | 28.1 ± 4.6 | 11.3 ± 0.9 | 51.9 | 17.5 | 30.8 | 31.4 | 9.7 | 58.9 | Cells in G1 phase (BetaD5 [10]): 63.2%; Cells in G2 phase (BetaD5 [10]): 24.2%; Cells in S phase (BetaD5 [10]): 12.6%; Cells in G1 phase (A2C12 [11]): 55.6%; Cells in G2 phase (A2C12 [11]): 11.3%; Cells in S phase (A2C12 [11]): 33.1%; Cells in G1 phase (A549 [12]): 78.9%; Cells in G2 phase (A549 [12]): 4.3%; Cells in S phase (A549 [12]): 16.7%; Cells in G1 phase (CaCo2 [13]): 61.9%; Cells in G2 phase (CaCo2 [13]): 5.2%; Cells in S phase (CaCo2 [13]): 32.9%; Cells in G1 phase (HepG2 [14]): 61.5%; Cells in G2 phase (HepG2 [14]): 7.3%; Cells in S phase (HepG2 [14]): 31.2% |
